B1: Rv3094c (enzyme)
chain: NQSETEIEILAEKIARWARARSAEIERDRRLPDELVTRLREAGLLRATMPREVAAPELAPGRALRCAEAVARGDASAGWCVSIAITSALLVAYLPARSREEMFGGGRGVAAGVWAPRGTARSVDGGVVVSGRWPFCSGINHADIMFAGCFVDDRQVPSVVALNKDELQVLDTWHTLGLRGTGSHDCVADDVFVPADRVFSVFDGPIVDRPLYRFPVFGFFALSIGAAALGNARAAIDDLVELAGGKKGLGSTRTLAERSATQAAAATAESALGAARALFYEVIEAAWQVSHDAEAVPVTMRNRLRLAATHAVRTSADVVRSMYDLAGGTAIYDNAPLQRRFRDAFTATAHFQVNEASRELPGRVLLDQPADVSML
notes: also called apo-Rv3094c; Rv3094c-FMN

Columns and labels:
[1] = target: T1, Rv3094c (Mycobacterium tuberculosis, UniProt O05773)
T1 sequence (O05773 entry or part of it): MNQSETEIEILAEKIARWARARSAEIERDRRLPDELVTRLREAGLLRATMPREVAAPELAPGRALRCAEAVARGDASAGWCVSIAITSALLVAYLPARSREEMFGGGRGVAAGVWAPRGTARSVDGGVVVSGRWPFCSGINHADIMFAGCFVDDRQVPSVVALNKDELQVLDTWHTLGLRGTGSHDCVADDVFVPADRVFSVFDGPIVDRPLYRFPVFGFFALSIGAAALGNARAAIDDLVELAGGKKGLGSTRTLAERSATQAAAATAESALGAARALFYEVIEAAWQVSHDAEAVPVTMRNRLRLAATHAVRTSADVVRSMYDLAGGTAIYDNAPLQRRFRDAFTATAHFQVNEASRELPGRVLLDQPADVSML

[2] = target: T2, EthA (Mycobacterium tuberculosis, UniProt P9WNF9); type: cell-based; conditions: ethionamide 80 µg/ml (Methods), 37 °C, up to 6 h
T2 construct: N-terminal 6xHis tag kept (pET28a), expressed in intact E. coli BL21(DE3); not purified
T2 sequence (P9WNF9 whole entry): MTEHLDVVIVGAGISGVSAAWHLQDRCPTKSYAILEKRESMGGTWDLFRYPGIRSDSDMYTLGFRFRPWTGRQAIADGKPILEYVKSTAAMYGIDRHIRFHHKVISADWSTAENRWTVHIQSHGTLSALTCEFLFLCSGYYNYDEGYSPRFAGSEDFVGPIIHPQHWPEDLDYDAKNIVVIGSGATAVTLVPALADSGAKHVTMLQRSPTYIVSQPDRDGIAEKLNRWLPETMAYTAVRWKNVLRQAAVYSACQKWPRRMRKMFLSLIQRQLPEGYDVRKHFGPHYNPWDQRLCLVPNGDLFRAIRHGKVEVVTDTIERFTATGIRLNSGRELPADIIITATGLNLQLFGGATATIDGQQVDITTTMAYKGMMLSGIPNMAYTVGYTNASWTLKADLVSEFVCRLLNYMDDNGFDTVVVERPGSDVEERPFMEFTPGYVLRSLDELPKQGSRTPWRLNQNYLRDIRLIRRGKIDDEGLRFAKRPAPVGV

[3] = target: T1, Rv3094c; remark: listed apart in the source
[4] = target: the molecule itself; experiment: crystal structure; crystals of apo-Rv3094c, Rv3094c-FMN and Rv3094c-FMN-ETH; 0.2 M sodium nitrate, 0.1 M Bis Tris propane pH 8.5, 20% PEG3350, 16 °C; multimeric state analysed with PDBePISA

Row | Molecule | HPLC-UV of E. coli culture supernatant, LC-MS/MS [1] | HPLC-UV of E. coli culture supernatant, LC-MS/MS [2] | X-ray crystallography [3] | stoichiometry N [4]
1 | CCc1cc(C(N)=S=O)ccn1 [ETH-SO] | We synthesized an ETH-SO standard, and confirmed the new peak to be ETH-SO | We synthesized an ETH-SO standard, and confirmed the new peak to be ETH-SO |  | 
2 | CCc1cc(C(N)=S)ccn1 [ethionamide] | Rv3094c must be a monooxygenase that can directly sulfoxidise ethionamide, forming ETH-SO | in supernatants from Rv3094c and ethA overexpression strains declined over time | in complex with FMN (Rv3094c-FMN; Supplementary Fig. 4b) and ethionamide (Rv3094c-FMN-ETH | 
3 | Cc1cc2nc3c(=O)[nH]c(=O)nc-3n(C[C@H](O)[C@H](O)[C@H](O)COP(=O)(O)O)c2cc1C [flavin mononucleotide] |  |  | Rv3094c in complex with FMN (Rv3094c-FMN; Supplementary Fig. 4b) | 
4 | B1 |  |  |  | 4
